Results on one molecule are retold here after doi:10.1101/2024.06.16.599186v1 (biorxiv, 2024).

The assay concerns the target MoGep4 (Pyricularia oryzae, UniProt G4N1T8).

Structures are written as SMILES. Counter-ions that a name gives are not always drawn.

Chain of MoGep4 (G4N1T8 1-216): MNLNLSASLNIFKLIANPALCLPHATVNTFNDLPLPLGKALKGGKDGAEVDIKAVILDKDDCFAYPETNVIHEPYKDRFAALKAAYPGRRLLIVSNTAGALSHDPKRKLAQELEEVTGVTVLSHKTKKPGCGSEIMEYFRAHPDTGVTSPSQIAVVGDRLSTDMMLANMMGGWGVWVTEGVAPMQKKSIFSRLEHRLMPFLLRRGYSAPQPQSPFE

In the case of `CCCCC(CC)CNC(=N)NC(=N)NCCCCCCNC(=N)NC(=N)NCC(CC)CCCC` (stereo not shown) [AXD, alexidine dihydrochloride], the “% inhibition at 4 μM” value came out at 62.9%.

Broadly, the % inhibition is the relative decrease from the control value, in per cent.
